Data on two molecules can be found in patent publication US6525022B1, “Receptor specific atrial natriuretic peptides” (Genentech, Inc., priority 1993, dated 2003).

The IC50 is the concentration at which inhibition is half-maximal. Low readings indicate greater potency in that assay, high ones weaker potency in that assay.

For test [1], the target named is T1, hNPR-C (Homo sapiens, UniProt P17342).
T1 sequence (P17342 27-541): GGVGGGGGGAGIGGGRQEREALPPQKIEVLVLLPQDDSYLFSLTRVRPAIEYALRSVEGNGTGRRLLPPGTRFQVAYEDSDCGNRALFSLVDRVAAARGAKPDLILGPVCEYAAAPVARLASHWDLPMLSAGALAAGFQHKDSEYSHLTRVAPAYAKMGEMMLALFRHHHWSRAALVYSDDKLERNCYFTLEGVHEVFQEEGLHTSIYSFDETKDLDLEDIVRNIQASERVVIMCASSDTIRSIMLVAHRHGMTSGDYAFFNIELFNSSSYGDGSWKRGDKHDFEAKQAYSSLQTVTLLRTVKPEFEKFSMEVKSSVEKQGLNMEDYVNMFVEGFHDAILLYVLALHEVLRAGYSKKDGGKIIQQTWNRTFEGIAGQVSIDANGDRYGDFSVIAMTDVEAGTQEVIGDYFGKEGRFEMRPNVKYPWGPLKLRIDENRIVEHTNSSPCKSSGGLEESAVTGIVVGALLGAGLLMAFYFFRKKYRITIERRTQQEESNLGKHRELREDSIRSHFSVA
As to the kind of experiment: Competitive binding to membranes from cells expressing human NPR-C. More on the design: expressed in transfected cells. As to conditions: FIG. 19, in comparison to rat ANP. As to the method: Membrane preparation. Stable cell lines expressing human NPR-A (Lowe and Fendly, J. Biol. Chem. 267:21691-21697 (1992)) or human NPR-C (Cunningham et al., EMBO J 13, 2508-2515 (1994)) were removed from cell culture dishes with 0.5 mM EDTA in phosphate buffered saline (PBS), placed in ice cold PBS and centrifuged at 228 g for 10 min at 4° C. The cell pellets were resuspended in ice-cold homogenization buffer (50 mM HEPES, 1 mM EDTA, 1 mM DTT, 0.25 M sucrose, 0.7 mg/mL pepstatin A, 0.5 mg/mL leupeptin and 1 mM PMSF, pH 7.4). The cells were then homogenized using a Brinkman polytron at setting 5 for 30 sec. The homogenate was centrifuged at 400×g for 10 min at 4° C. The supernatant was collected and centrifuged at 100,000×g for 30 min at 4° C. […] Protein concentrations was determined using the Biorad protein assay with IgG as a standard.
Membrane competition binding assays. […] The plates were washed six times with PBS, then air dried prior to adding scintillant and counted in a Packard Topcount scintillation counter for 1 min/well. Binding was measured in duplicate for each concentration of competitor.
Data analysis. The competition binding curves and cGMP production dose responses were analyzed by the four-parameter logistic equation with the KaleidaGraph™ program (Synergy Software, PA) to obtain estimates of the IC50 or EC50 values. […]

Test [2] has as its target T1, hNPR-C. Kind of test: Competition binding to hNPR-C (Table I, FIG. 5).

Where a SMILES comes first, the peptide text is derived from it. Bridges are numbered along the chain shown (N, C = ends).

Regarding `CC[C@H](C)[C@@H]1NC(=O)[C@H](CCCNC(=N)N)NC(=O)[C@H](CC(=O)O)NC(=O)[C@H]([C@@H](C)CC)NC(=O)[C@H](CO)NC(=O)CNC(=O)[C@H]([C@@H](C)O)NC(=O)[C@H](Cc2ccccc2)NC(=O)[C@@H](NC(=O)[C@H](CO)NC(=O)[C@H](CO)NC(=O)[C@H](CCCNC(=N)N)NC(=O)[C@H](CCCNC(=N)N)NC(=O)[C@H](CC(C)C)NC(=O)[C@@H](N)CO)CSSC[C@@H](C(=O)N[C@@H](CC(N)=O)C(=O)N[C@@H](CO)C(=O)N[C@@H](Cc2ccccc2)C(=O)N[C@@H](CCCNC(=N)N)C(=O)N[C@@H](Cc2ccc(O)cc2)C(=O)O)NC(=O)CNC(=O)[C@H](CC(C)C)NC(=O)CNC(=O)[C@H](CO)NC(=O)[C@H](CCC(N)=O)NC(=O)[C@H](C)NC(=O)[C@H](CCCNC(=N)N)NC1=O` [ANF 27], the “Binding to human NPR-C membranes, competition for 125I-rat ANP” value on hNPR-C [1] is listed as “does not effectively bind”.

For `CC[C@H](C)[C@@H]1NC(=O)[C@H](CCCNC(=N)N)NC(=O)[C@H](CC(=O)O)NC(=O)[C@H]([C@@H](C)CC)NC(=O)[C@H](CO)NC(=O)CNC(=O)[C@H]([C@@H](C)O)NC(=O)[C@H](Cc2ccccc2)NC(=O)[C@@H](NC(=O)[C@H](CO)NC(=O)[C@H](CO)NC(=O)[C@H](CCCNC(=N)N)NC(=O)[C@H](CCCNC(=N)N)NC(=O)[C@H](CC(C)C)NC(=O)[C@H](CO)NC(=O)[C@H](CCCNC(=N)N)NC(=O)[C@@H]2CCCN2C(=O)[C@H](C)NC(=O)[C@@H](N)[C@@H](C)O)CSSC[C@@H](C(=O)N[C@@H](CC(N)=O)C(=O)N[C@@H](CO)C(=O)N[C@@H](Cc2ccccc2)C(=O)N[C@@H](CCCNC(=N)N)C(=O)N[C@@H](Cc2ccc(O)cc2)C(=O)O)NC(=O)CNC(=O)[C@H](CC(C)C)NC(=O)CNC(=O)[C@H](CO)NC(=O)[C@H](CCC(N)=O)NC(=O)[C@H](C)NC(=O)[C@H](CCCNC(=N)N)NC1=O` [ANF 76] (H-TAPRSLRRSSCFTGSIDRIRAQSGLGCNSFRY-OH; disulfide 11-27; C-terminus assumed), the IC50 at hNPR-C [2] was 10 µM.
